According to ChEMBL document CHEMBL1201862, “PubChem BioAssay data set” (2004):
Calls of active or inactive are those of the source.

How the values were obtained:
[1] = biological target: T1, Microphthalmia-associated transcription factor (Homo sapiens, UniProt O75030); assay: reducers of TRPM1 reporter luminescence, concentration series – cell-based, SK-MEL-5, cherry-picked, set 3, MITF inhibitor project, dose response (AID 493073); format: functional;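 also: SK-MEL-5 melanoma cells with luciferase driven by the MITF target TRPM1 promoter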
T1 sequence (O75030 whole entry): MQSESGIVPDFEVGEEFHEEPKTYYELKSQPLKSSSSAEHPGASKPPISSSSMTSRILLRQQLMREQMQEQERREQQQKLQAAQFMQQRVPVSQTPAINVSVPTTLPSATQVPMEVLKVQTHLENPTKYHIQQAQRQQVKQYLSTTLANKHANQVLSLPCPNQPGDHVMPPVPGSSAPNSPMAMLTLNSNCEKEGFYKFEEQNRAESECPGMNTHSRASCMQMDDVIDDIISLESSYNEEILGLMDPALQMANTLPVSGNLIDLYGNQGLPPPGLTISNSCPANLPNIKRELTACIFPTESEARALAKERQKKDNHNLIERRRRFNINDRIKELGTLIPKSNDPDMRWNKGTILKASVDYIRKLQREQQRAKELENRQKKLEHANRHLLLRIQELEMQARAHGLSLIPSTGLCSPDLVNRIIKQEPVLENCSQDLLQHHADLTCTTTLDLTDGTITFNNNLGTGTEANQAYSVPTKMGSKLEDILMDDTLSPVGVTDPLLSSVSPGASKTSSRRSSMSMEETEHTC

CAAX prenyl protease 2 [2] = biological target: CAAX prenyl protease 2 (Homo sapiens, UniProt Q9Y256); assay: inhibition of Ras-converting CAAX protease Rce1 – biochemical, yeast membranes, quenched-peptide fluorescence, cherry-pick, dose response (AID 588849)
[3] = cAMP pathway inhibition in counterscreen cell line – TR-FRET cAMP detection, counter-screen for MC4R biased antagonist project, dose response (AID 602305); format: functional, cell-based;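 also: U2OS cells stimulated with forskolin near its EC80 as the cAMP inducer; potency is for inhibition of forskolin-stimulated cAMP signaling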
CAAX prenyl protease 2 [4] = biological target: T2, CAAX prenyl protease 2 (Saccharomyces cerevisiae S288c, UniProt Q03530); format: biochemical
T2 sequence (Q03530 whole entry): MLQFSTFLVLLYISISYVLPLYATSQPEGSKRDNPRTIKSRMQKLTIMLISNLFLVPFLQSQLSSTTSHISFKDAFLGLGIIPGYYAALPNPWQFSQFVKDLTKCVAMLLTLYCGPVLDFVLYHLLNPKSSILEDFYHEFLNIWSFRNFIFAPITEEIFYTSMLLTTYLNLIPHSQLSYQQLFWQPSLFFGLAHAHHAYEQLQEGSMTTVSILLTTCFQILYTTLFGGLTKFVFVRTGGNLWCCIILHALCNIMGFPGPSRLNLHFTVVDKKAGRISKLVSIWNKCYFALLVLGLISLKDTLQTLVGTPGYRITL

Activin receptor type-1 = Activin receptor type-1 (Homo sapiens, UniProt Q04771); assay: Navigating the Kinome. Panel member name: ACVR1; format: functional
[5] = biological target: Mitogen-activated protein kinase 14 (Homo sapiens, UniProt Q16539); format: functional;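 also: part of a kinome-wide panel, MAPK14 entry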
[6] = biological target: Casein kinase I isoform gamma-1 (Homo sapiens, UniProt Q9HCP0); format: functional;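 also: measured as the CSNK1G1 member of a kinome profiling panel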
[7] = biological target: Serine/threonine-protein kinase pim-2 (Homo sapiens, UniProt Q9P1W9); format: functional;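 also: value comes from a broad kinase panel profiling study in which PIM2 was one of the panel members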
[8] = biological target: Serine/threonine-protein kinase PAK 1 (Homo sapiens, UniProt Q13153); format: functional
[9] = biological target: MAP kinase-activated protein kinase 2 (Homo sapiens, UniProt P49137); format: functional;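 also: measured as one member of a kinome-wide kinase panel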
[10] = biological target: MAP kinase-activated protein kinase 5 (Homo sapiens, UniProt Q8IW41); format: functional;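 also: measured as one member of a kinome panel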
[11] = biological target: Serine/threonine-protein kinase MRCK alpha (Homo sapiens, UniProt Q5VT25); format: functional
[12] = biological target: Mitogen-activated protein kinase 13 (Homo sapiens, UniProt O15264); format: functional
[13] = biological target: Protein-tyrosine kinase 6 (Homo sapiens, UniProt Q13882); format: functional
[14] = biological target: Serine/threonine-protein kinase PLK1 (Homo sapiens, UniProt P53350); format: functional;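 also: PLK1 measured as one member of a kinome-wide profiling panel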
[15] = biological target: Receptor tyrosine-protein kinase erbB-2 (Homo sapiens, UniProt P04626); assay: Navigating the Kinome. Panel member name: ERBB2; format: functional
[16] = biological target: Testis-specific serine/threonine-protein kinase 2 (Homo sapiens, UniProt Q96PF2); format: functional;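 also: part of the Navigating the Kinome panel, target entry STK22B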
[17] = biological target: Fibroblast growth factor receptor 3 (Homo sapiens, UniProt P22607); format: functional
[18] = biological target: Homeodomain-interacting protein kinase 2 (Homo sapiens, UniProt Q9H2X6); format: functional;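 also: measured within a kinome-wide kinase profiling panel, HIPK2 being one panel member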
[19] = biological target: Dual specificity tyrosine-phosphorylation-regulated kinase 3 (Homo sapiens, UniProt O43781); format: functional;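 also: measured as one member of a broad kinase panel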
[20] = biological target: STE20-like serine/threonine-protein kinase (Homo sapiens, UniProt Q9H2G2); format: functional
[21] = biological target: Tyrosine-protein kinase Srms (Homo sapiens, UniProt Q9H3Y6); format: functional;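 also: SRMS measured as one member of a kinome-wide kinase profiling panel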
[22] = biological target: Lymphokine-activated killer T-cell-originated protein kinase (Homo sapiens, UniProt Q96KB5); format: functional;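 also: value comes from a kinase panel screen in which TOPK was one of the panel members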
[23] = biological target: Serine/threonine-protein kinase D2 (Homo sapiens, UniProt Q9BZL6); format: functional;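 also: measured against PRKD2 as one member of a kinome-wide kinase profiling panel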
[24] = biological target: Serine/threonine-protein kinase PLK3 (Homo sapiens, UniProt Q9H4B4); format: functional
[25] = biological target: Inhibitor of nuclear factor kappa-B kinase subunit beta (Homo sapiens, UniProt O14920); format: functional
Focal adhesion kinase 1 = Focal adhesion kinase 1 (Homo sapiens, UniProt Q05397); format: functional;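 also: measured as one member of a kinome panel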
[26] = biological target: MAP kinase-interacting serine/threonine-protein kinase 2 (Homo sapiens, UniProt Q9HBH9); format: functional
Insulin receptor = Insulin receptor (Homo sapiens, UniProt P06213); format: functional;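 also: insulin receptor kinase tested as one member of a kinome-wide kinase panel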
[27] = viability of HCT116 lacking mutant beta-catenin – cell-based, human colon tumor, dose response (AID 1045); format: functional;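 also: HCT116 colon tumor cells with beta catenin knocked out; cells exposed to compound for 60 hours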
H4 = assay: Luminescence Cell-Based Dose Response HTS to Identify Activators of 5'UTR Stem-Loop Driven Prion Protein mRNA Translation in H4 Neuroglioblastoma Cells. [Related pubchem assays: 1829 (Project Summary), 1814 (Primary HTS)]; format: functional; conditions: Homo sapiens

Receptor tyrosine-protein kinase erbB-2, sequence (P04626 whole entry): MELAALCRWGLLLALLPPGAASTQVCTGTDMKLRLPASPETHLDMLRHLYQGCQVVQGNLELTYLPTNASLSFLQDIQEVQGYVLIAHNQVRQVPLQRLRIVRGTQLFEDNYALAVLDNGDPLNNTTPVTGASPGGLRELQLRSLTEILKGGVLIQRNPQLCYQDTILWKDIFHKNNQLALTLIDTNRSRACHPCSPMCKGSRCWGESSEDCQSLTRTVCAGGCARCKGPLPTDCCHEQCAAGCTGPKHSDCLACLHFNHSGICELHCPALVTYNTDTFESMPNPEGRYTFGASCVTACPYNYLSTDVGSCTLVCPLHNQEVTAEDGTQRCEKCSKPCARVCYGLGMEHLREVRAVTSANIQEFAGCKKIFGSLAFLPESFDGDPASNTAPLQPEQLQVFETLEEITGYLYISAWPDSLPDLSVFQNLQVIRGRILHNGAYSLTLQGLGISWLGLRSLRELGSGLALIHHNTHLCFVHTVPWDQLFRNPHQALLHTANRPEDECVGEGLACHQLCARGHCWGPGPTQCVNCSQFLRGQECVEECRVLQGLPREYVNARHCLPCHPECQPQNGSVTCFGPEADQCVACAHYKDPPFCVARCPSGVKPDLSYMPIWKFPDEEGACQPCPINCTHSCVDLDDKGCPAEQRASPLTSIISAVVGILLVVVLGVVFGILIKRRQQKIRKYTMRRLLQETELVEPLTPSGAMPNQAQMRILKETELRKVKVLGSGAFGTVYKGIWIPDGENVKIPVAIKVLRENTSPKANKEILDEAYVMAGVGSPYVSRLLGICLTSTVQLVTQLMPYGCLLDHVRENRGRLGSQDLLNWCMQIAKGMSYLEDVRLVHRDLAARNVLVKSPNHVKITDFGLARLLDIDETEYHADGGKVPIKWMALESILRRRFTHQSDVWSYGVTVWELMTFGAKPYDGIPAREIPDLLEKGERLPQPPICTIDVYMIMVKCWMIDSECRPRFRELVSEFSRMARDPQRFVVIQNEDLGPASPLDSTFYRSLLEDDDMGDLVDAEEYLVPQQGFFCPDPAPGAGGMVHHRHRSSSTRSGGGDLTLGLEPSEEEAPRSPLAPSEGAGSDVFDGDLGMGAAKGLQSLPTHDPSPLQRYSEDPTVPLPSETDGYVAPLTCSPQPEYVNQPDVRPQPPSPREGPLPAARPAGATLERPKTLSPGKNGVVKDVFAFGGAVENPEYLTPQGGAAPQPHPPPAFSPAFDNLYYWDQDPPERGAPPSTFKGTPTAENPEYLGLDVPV
Serine/threonine-protein kinase PLK1, sequence (P53350 whole entry): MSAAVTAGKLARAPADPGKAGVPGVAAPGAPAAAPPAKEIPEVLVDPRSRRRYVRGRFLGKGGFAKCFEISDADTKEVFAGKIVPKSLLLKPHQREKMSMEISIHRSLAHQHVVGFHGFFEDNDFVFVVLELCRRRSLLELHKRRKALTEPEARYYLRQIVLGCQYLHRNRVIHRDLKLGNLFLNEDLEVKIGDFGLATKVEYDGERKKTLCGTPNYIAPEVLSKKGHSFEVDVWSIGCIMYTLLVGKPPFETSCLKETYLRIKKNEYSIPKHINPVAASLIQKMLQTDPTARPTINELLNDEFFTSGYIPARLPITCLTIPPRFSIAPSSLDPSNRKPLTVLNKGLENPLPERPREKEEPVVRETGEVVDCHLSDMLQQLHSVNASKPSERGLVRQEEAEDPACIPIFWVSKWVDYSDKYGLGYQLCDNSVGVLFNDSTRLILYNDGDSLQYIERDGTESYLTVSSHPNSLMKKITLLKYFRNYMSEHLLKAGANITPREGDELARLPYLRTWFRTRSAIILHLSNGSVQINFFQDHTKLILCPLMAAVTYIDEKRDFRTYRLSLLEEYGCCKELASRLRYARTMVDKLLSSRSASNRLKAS
Insulin receptor, sequence (P06213 28-758 limits assumed): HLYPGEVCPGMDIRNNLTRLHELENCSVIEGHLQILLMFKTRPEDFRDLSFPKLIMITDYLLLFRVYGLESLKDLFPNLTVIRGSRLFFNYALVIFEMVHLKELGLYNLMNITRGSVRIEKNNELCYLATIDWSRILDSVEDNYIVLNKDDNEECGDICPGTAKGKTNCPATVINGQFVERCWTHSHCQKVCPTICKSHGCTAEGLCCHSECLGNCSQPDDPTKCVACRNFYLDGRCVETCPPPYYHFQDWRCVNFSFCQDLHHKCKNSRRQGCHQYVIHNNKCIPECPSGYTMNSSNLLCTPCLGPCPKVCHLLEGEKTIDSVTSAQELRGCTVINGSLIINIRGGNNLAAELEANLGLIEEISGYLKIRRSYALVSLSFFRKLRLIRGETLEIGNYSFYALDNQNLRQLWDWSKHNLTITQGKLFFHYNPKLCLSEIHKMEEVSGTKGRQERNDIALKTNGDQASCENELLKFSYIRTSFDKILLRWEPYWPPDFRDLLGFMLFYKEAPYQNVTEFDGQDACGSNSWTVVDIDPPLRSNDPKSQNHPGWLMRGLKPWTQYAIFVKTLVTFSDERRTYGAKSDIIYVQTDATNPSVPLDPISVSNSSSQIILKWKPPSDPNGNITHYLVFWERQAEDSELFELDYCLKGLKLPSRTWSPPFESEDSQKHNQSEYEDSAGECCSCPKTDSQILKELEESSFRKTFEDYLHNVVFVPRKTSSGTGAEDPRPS
Insulin receptor, sequence (P06213 763-1382 limits assumed): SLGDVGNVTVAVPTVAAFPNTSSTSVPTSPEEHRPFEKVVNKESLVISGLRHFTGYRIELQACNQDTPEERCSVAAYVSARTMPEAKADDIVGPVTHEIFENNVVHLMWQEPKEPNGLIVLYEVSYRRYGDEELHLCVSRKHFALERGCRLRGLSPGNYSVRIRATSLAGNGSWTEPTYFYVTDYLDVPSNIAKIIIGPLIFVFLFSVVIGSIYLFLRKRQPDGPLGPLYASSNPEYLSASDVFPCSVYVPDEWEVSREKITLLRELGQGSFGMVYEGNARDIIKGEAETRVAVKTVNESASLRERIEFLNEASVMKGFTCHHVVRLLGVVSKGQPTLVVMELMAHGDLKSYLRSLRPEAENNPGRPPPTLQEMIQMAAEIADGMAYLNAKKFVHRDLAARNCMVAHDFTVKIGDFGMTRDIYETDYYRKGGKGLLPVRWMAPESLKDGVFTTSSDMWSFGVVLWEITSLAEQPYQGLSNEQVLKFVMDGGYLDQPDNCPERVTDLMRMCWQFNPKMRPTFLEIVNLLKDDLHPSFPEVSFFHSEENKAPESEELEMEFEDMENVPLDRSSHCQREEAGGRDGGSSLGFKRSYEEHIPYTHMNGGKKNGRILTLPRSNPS
Serine/threonine-protein kinase pim-2, sequence (Q9P1W9 whole entry): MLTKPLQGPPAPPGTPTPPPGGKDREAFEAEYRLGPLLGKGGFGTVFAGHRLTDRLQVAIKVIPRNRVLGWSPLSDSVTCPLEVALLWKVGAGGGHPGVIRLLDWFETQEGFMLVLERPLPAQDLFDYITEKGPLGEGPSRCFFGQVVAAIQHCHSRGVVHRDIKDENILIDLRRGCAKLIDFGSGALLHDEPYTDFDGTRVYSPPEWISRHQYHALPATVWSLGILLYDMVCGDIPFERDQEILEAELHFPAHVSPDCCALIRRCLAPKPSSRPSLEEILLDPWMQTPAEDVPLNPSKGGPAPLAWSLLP
MAP kinase-activated protein kinase 2, sequence (P49137 whole entry): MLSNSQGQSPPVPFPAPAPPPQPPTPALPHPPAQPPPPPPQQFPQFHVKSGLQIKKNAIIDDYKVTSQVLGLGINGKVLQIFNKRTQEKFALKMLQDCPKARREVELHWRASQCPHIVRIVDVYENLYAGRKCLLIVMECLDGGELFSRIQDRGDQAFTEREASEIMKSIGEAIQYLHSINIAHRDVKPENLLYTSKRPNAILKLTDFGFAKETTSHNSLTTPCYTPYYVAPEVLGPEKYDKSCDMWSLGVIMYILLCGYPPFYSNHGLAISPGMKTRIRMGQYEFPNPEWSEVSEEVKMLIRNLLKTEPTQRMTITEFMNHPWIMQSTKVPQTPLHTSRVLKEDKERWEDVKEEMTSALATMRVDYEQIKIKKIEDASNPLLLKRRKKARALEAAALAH
Serine/threonine-protein kinase D2, sequence (Q9BZL6 whole entry): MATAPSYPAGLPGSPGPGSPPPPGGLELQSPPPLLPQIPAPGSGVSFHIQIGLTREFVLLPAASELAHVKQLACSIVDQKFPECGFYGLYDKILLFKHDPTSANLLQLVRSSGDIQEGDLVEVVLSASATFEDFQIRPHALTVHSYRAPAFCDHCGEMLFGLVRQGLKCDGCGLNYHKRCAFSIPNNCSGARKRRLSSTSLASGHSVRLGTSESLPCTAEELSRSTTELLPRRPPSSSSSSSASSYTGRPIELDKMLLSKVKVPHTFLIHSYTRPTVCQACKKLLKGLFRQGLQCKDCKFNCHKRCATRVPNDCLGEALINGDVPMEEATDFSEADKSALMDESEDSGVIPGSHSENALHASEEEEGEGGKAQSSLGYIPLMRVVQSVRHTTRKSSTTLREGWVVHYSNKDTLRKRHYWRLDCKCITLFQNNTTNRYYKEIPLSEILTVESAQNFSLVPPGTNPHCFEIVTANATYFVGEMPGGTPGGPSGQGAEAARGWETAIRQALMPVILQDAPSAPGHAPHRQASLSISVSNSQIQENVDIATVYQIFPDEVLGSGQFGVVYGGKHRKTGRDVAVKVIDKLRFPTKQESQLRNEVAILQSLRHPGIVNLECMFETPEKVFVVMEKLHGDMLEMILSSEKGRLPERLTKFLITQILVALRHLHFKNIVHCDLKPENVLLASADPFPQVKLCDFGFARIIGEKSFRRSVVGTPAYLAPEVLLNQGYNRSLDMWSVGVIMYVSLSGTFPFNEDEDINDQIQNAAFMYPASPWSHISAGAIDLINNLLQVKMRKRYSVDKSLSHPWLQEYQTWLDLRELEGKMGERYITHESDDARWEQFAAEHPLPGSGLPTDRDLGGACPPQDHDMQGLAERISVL

Cc1cc(C)c[n+](C2=C([N-]S(=O)(=O)c3cccs3)C(=O)c3ccccc3C2=O)c1
AC50 [1]: 2950 nM (active)

CCCCCCCCCCC[N+](C)(C)CC/C=C1/c2ccccc2Sc2ccc(Cl)cc21
AC50 (CAAX prenyl protease 2 [2]): 58400 nM (active)
IC50 [3]: 25900 nM (inactive)
AC50 (CAAX prenyl protease 2 [4]): 6500 nM (active)

CCn1c(-c2nonc2N)nc2cncc(C(=O)N3CCC(N)C3)c21 (stereo unspecified)
Ki (Activin receptor type-1): > 3980 nM (inactive)
Ki [5]: > 3980 nM (inactive)

Cc1[nH]nc2ccc(-c3cncc(OCC(N)Cc4c[nH]c5ccccc45)c3)cc12 (stereo unspecified)
Ki [6]: 39.8 nM (active)
Ki [7]: 6.31 nM (active)
Ki [8]: 1260 nM (active)
Ki [9]: 2510 nM (active)
Ki [10]: > 1580 nM (inactive)
Ki [11]: 50.1 nM (active)
Ki [12]: 1580 nM (active)
Ki [13]: > 2510 nM (inactive)
Ki [14]: > 7940 nM (inactive)
Ki [15]: > 1580 nM (inactive)
Ki [16]: > 1580 nM (inactive)
Ki [17]: > 2000 nM (inactive)
Ki [18]: 79.4 nM (active)
Ki [19]: 794 nM (active)
Ki [20]: > 10000 nM (inactive)
Ki [21]: > 1580 nM (inactive)
Ki [22]: 1000 nM (active)
Ki [23]: 31.6 nM (active)
Ki [24]: > 7940 nM (inactive)
Ki [25]: > 3160 nM (inactive)
Ki (Focal adhesion kinase 1): > 1580 nM (inactive)
Ki [26]: 3980 nM (active)
Ki (Insulin receptor): 3980 nM (active)

COC(=O)c1ccccc1NC1=C/C(=N\S(=O)(=O)c2cccs2)c2ccccc2C1=O
EC50 [27]: 8190 nM (active)
EC50 (H4): 1890 nM (active)
